Measurements as given in patent US7220875B2, “Amino acid derived prodrugs of propofol, compositions and uses thereof” (priority 2003, dated 2007).

Key:
[1] = Enzymatic cleavage of prodrugs in vitro, human plasma; format: in vitro ADME; details: substrate 2.0 μM, 37° C.
Method: (§1) The stability of propofol prodrugs were evaluated in one or more in vitro systems using a variety of tissue preparations following methods known in the art. Tissues were obtained from commercial sources (e.g., Pel-Freez Biologicals, Rogers, Ark., or GenTest Corporation, Woburn, Mass.). Experimental conditions used for the in vitro studies are described in Table 1 below. Each preparation was incubated with test compound at 37° C. for one hour. Aliquots (50 μL) were removed at 0, 30, and 60 min and quenched with 0.1% trifluoroacetic acid in acetonitrile. Samples were then centrifuged and analyzed by LC/MS/MS (see Examples 59 and 60 below for method details). Stability of drug conjugates towards specific enzymes (e.g., peptidases, etc.) were also assessed in vitro by incubation with the purified enzyme: […]

[2] = Enzymatic cleavage of prodrugs in vitro, human liver S9; format: in vitro ADME; details: Human Liver S9 (0.5 mg/mL), substrate 2.0 μM, NADPH, 37° C.
Method: as §1

[3] = Caco-2 homogenate S9 stability; format: in vitro ADME; details: Caco-2 S9 (0.5 mg protein per mL), prodrug 5 μM, 37° C.
Method: (§2) The stability of propofol prodrugs were evaluated in one or more in vitro systems using a variety of tissue preparations following methods known in the art. Tissues were obtained from commercial sources (e.g., Pel-Freez Biologicals, Rogers, Ark., or GenTest Corporation, Woburn, Mass.). Experimental conditions used for the in vitro studies are described in Table 1 below. Each preparation was incubated with test compound at 37° C. for one hour. Aliquots (50 μL) were removed at 0, 30, and 60 min and quenched with 0.1% trifluoroacetic acid in acetonitrile. Samples were then centrifuged and analyzed by LC/MS/MS (see Examples 59 and 60 below for method details). Stability of drug conjugates towards specific enzymes (e.g., peptidases, etc.) were also assessed in vitro by incubation with the purified enzyme:
Caco-2 Homogenate S9 Stability: Caco-2 cells were grown for 21 days prior to harvesting. Culture medium was removed and cell monolayers were rinsed and scraped off into ice-cold 10 mM sodium phosphate/0.15 M potassium chloride, pH 7.4. Cells were lysed by sonication at 4° C. using a probe sonicator. Lysed cells were then transferred into 1.5 mL centrifuge vials and centrifuged at 9000 g for 20 min at 4° C. The resulting supernatant (Caco-2 cell homogenate S9 fraction) was aliquoted into 0.5 mL vials and stored at −80° C. until used.
For stability studies, prodrug (5 μM) was incubated in Caco-2 homogenate S9 fraction (0.5 mg protein per mL) for 60 min at 37° C. Concentrations of intact prodrug and released propofol were determined at zero time and 60 minutes using LC/MS/MS.

[4] = test system: pancreatin; experiment: Pancreatin stability; format: in vitro ADME, porcine; details: 1% (w/v) pancreatin, pH 7.5, conjugate 5 μM, 37° C.
Method: as §2
Pancreatin Stability: Stability studies were conducted by incubating conjugate (5 μM) with 1% (w/v) pancreatin (Sigma, P-1625, from porcine pancreas) in 0.025 M Tris buffer containing 0.5 M NaCl (pH 7.5) at 37° C. for 60 min. The reaction was stopped by addition of 2 volumes of methanol. After centrifugation at 14,000 rpm for 10 min, the supernatant was removed and analyzed by LC/MS/MS.

[5] = Enzymatic cleavage of prodrugs in vitro, rat plasma; format: in vitro ADME; details: substrate 2.0 μM, 37° C.
Method: as §1

[6] = Enzymatic cleavage of prodrugs in vitro, rat liver S9; format: in vitro ADME; details: Rat Liver S9 (0.5 mg/mL), substrate 2.0 μM, NADPH, 37° C.
Method: as §1

[7] = in vivo; details: male, Sprague-Dawley, rat, plasma, oral, 25 mg per kg body weight
Method: Propofol was administered as an intravenous bolus injection or by oral gavage to groups of four to six adult male Sprague-Dawley rats (weight approx 250 g) as solutions in PEG400, at doses of 10 mg per kg body weight (I.V.) or 25 mg per kg body weight (oral). Animals were fasted overnight before the study and for 4 hours post-dosing. Blood samples (1.0 mL) were obtained via a jugular vein cannula at intervals over 24 hours after oral dosing. Blood was quenched immediately using acetonitrile with 1% formic acid and then was frozen at −80° C. until analyzed.
Concentrations of propofol in plasma were determined using an API 4000 LC/MS/MS instrument equipped with an Agilent 1100 binary pump and an Agilent autosampler. The column was a Phenomenex Hydro-RP 4.6*50 mm column operating at room temperature. The mobile phases were 2 mM aqueous ammonium acetate (A) and 95% acetonitrile with 5 mM ammonium acetate (B). The gradient condition was: 5% B for 1 min, increasing to 90% B in 2.5 min and maintained for 2 min. 20 μL of sample was injected. A Turbo-IonSpray source was used, and propofol was detected in negative ion mode in Q1 at m/z=177. The peaks were integrated using Analyst 1.2 quantitation software.

[8] = rats; oral dosing; cited from earlier work

| Compound | % of Propofol Released from Propofol Prodrugs after 60 min. [1] [%] | % of Propofol Released from Propofol Prodrugs after 60 min. [2] [%] | % of Propofol Released from Propofol Prodrugs after 60 min. [3] [%] | % of Propofol Released from Propofol Prodrugs after 60 min. [4] [%] | % of Propofol Released from Propofol Prodrugs after 60 min. [5] [%] | % of Propofol Released from Propofol Prodrugs after 60 min. [6] [%] | bioavailability [7] [%] | administered drug undergoing first pass metabolism [8] |
| --- | --- | --- | --- | --- | --- | --- | --- | --- |
| H-Asp-Asp(OCH2OPropofol)-OH [Compound 220] | 1 | 0 | 49 | 6 | – | – | – | – |
| CC(C)c1cccc(C(C)C)c1OC(=O)C[C@H](NC(=O)[C@@H](N)Cc1ccc(O)cc1)C(=O)O [Compound 122, H-Tyr-Asp(OPropofol)-OH] | 0 | 6 | 0 | 10 | 2 | 9 | – | – |
| H-Gly-Tyr-OPropofol [Compound 192] | 15 | 60 | 41 | 0 | 15 | 60 | – | – |
| CC(C)c1cccc(C(C)C)c1OC(=O)CC[C@H](NC(=O)[C@@H](N)CC(N)=O)C(=O)O [Compound 124, H-Asn-Glu(OPropofol)-OH] | 2 | 0 | 0 | 4 | 65 | 0 | – | – |
| CC(C)c1cccc(C(C)C)c1OC(=O)CC[C@H](N)C(=O)N[C@@H](C)C(=O)O [Compound 138, H-Glu(OPropofol)-Ala-OH] | 44 | 0 | 3 | 9 | 50 | 0 | – | – |
| CC(C)c1cccc(C(C)C)c1OC(=O)OC[C@H](NC(=O)[C@H](C)N)C(=O)O [Compound 161, H-Ala-Ser(β-OC(O)OPropofol)-OH] | 2 | 14 | 20 | 8 | 30 | 8 | – | – |
| CSCC[C@H](N)C(=O)N[C@@H](CC(=O)Oc1c(C(C)C)cccc1C(C)C)C(=O)O [Compound 121, H-Met-Asp(OPropofol)-OH] | 3 | 0 | 0 | 0 | 7 | 0 | – | – |
| CC(C)c1cccc(C(C)C)c1O [Propofol, 2,6-diisopropylphenol] | – | – | – | – | – | – | 0.23 | approximately 90% |
| CC(C)c1cccc(C(C)C)c1OC(=O)C[C@H](NC(=O)[C@H](C)N)C(=O)O [Compound 107, H-Ala-Asp(OPropofol)-OH] | 1 | 5 | 4 | 7 | 3 | 6 | – | – |
